Measurements from ChEMBL document CHEMBL3507680, “University of Dundee, Gates Library screen for HepG2 cell viability”.

Assay: Human HepG2 cell viability assay in 384 well format
Type: toxicity, cell-based
Parameters: dose 125 nL, time 70.5 hour; concentration not given beside the values
Settings: HepG2 cells, read-out: Inhibition

| Structure (SMILES) | cytotoxicity at 70.5 h [%] |
| --- | --- |
| O=C(Nc1c(F)cccc1F)N1CC(c2nc(C3CC3)no2)C1 | -6.67 |
| CCS(=O)(=O)N1CC(c2nc(-c3cccs3)no2)C1 | -2.02 |
| COc1ncccc1C(=O)N1CC(c2nc(-c3cccs3)no2)C1 | -5.8 |
| CN(C)S(=O)(=O)N1CC(c2nc(-c3ccsc3)no2)C1 | -6.06 |
| O=C(c1ccccc1F)N1CC(c2nc(-c3ccc[nH]c3=O)no2)C1 | -2.53 |
| N#Cc1cccc(C(=O)N2CC(c3nc(-c4ccc[nH]c4=O)no3)C2)c1 | -1.92 |
| COc1ncccc1C(=O)N1CC(c2nc(-c3ccco3)no2)C1 | 15.9 |
| O=C1CCCN1C(CNS(=O)(=O)C1CC1)Cc1cccc(F)c1 (stereo unspecified) | -15.5 |
| Cc1cc(C(=O)NCC(Cc2cccc(F)c2)N2CCCCC2=O)no1 (stereo unspecified) | -2.65 |
| CN(C)S(=O)(=O)NCC(Cc1cccc(F)c1)N1CCNC1=O (stereo unspecified) | -2.09 |
| CC(C)S(=O)(=O)NCC(Cc1cccc(F)c1)N1CCNC1=O (stereo unspecified) | -15.5 |
| CCOCC(=O)NCC(Cc1cccc(F)c1)n1cccc1 (stereo unspecified) | -1.33 |
| O=C(Nc1ccccc1F)C1CN(C(=O)c2ccc3c(c2)OCO3)C1 | -11.5 |
| CC(=O)N1CC(C(=O)Nc2cccc(OC(F)F)c2)C1 | -3.71 |
| O=C(Nc1cccc(OC(F)F)c1)C1CN(S(=O)(=O)C2CC2)C1 | 0.345 |
| COc1ncc(-c2c(C#N)c(N)nc3c2CCc2[nH]ccc2-3)cn1 | -4.69 |
| COC1CCCN(c2nc(C)nc3c2CCN(Cc2ccco2)CC3)C1 (stereo unspecified) | 8.06 |
| NC(=O)c1csc(N2CCCC(c3n[nH]c(=O)n3-c3ccccc3)C2)n1 (stereo unspecified) | -6.33 |
| Cc1nccn1Cc1nnc(C2CCCN(Cc3ccncc3)C2)n1C (stereo unspecified) | -17.2 |
| CCC(NC(=O)c1cnc(N(C)C)nc1C)c1ccc(S(C)(=O)=O)cc1 (stereo unspecified) | -8.61 |
| Cc1ccc(C)c2c(O)cc(CNCc3ccc(S(N)(=O)=O)cc3)nc12 | -4.39 |
| CCc1oc(C(=O)N2CC[C@H]3CC[C@@H](C2)N3)cc1CN(CC)CC | -8.75 |
| CCC[C@@H]1CN(Cc2ccc(C(F)(F)F)nc2)C[C@H]1NS(C)(=O)=O | 11.1 |

| Structure (SMILES) | cytotoxicity at 70.5 h [%] |
| --- | --- |
| CCN(CC)S(=O)(=O)N1CCC(c2nccn2Cc2ccccn2)CC1 | 12.4 |
| NCC(=O)N1CCCC1c1ccc(C(=O)NCc2ccoc2)s1 (stereo unspecified) | -2.34 |
| O=C1N(CCC2CCCCC2)CCCC1(O)CNCCc1ccccc1 (stereo unspecified) | 0.277 |
| CN(c1ncccc1CNC(=O)c1cscn1)C1CCCCC1 | 0.847 |
| O=C(c1cn2ccsc2n1)N1CCOCC(O)(CN2CCCC2)C1 (stereo unspecified) | 1.73 |
| Cc1cc(N2CCCN(C(C(=O)O)c3cccc(C)c3F)CC2)ccn1 (stereo unspecified) | 3.14 |
| C[C@@H]1CN(C2CCN(c3ccccc3)CC2)CC[C@@]1(O)C1CCOCC1 | -3.71 |
| Cc1ncc(CN2CCN(C(=O)C3CCC3)[C@@H]3CS(=O)(=O)C[C@@H]32)cn1 | -16.2 |
| O=C(CN1CCCCCC1)NCc1cccnc1Oc1ccccc1 | -2.72 |
| CCOC(=O)N1CCCn2nc(C(=O)NCCN(C)C)cc2C1 | -6.9 |
| Cn1nccc1C(=O)N1CCC(n2cc(-c3ccsc3)nn2)CC1 | -3.85 |
| CN(C)CC1(O)CCN(C(=O)c2ccc(-n3cnnc3)cc2Cl)C1 (stereo unspecified) | 7.55 |
| COCCCN1CC2(CCCN(c3ncnc4[nH]ccc34)C2)CCC1=O (stereo unspecified) | -6.33 |
| Cc1nccn1CCCC(=O)N1CCC2(CCC(=O)N(C(C)C)C2)CC1 | -4.22 |
| CN1C[C@H]2CNC[C@@]2(C(=O)N2CCN(c3ncccc3C#N)CC2)C1 | -6.13 |
| Cc1ccc(C(=O)N2C[C@@H](C(=O)O)[C@H](c3ccncc3)C2)cc1F | -5.6 |
| O=C(CN1CCOC1=O)N(Cc1ccccc1)Cc1nccs1 | -14.3 |
| Cc1noc(C)c1CN1C(=O)[C@H]2CC[C@@H]1CN(Cc1cccc(O)c1)C2 | 5.47 |
| O=C(CN1CCOCS1(=O)=O)NCCc1ccc(Cl)cc1 | -9.99 |
| CC1CNC(=O)CCN1Cc1cc(O)c2cccc(F)c2n1 (stereo unspecified) | -6.4 |
| O=C(CCCc1ccc(Cl)cc1)N1CCN(C(=O)c2ccc[nH]2)CC1 | 1.45 |
| COc1ccnc(N2CCC3(CCCN(CC4CC4)C3=O)C2)n1 (stereo unspecified) | -6.47 |
| CCN1CCN(C[C@@H]2CN(c3ncccc3Cl)C[C@@H]2CO)CC1 | -3.91 |

| Structure (SMILES) | cytotoxicity at 70.5 h [%] |
| --- | --- |
| COc1cc(Oc2ccc(C(N)=O)cn2)ccc1CN1CCCC1 | -6.89 |
| Cc1ccc(OCc2occc2C(=O)N2CC[C@H](CO)[C@@H](O)C2)cc1 | -8.34 |
| CCS(=O)(=O)N(C)CCCNCc1c(C)nn(C)c1N(C)C | -2.24 |
| Cc1nc(CC(=O)N2CCc3nnc(N(C)C)cc3C2)cs1 | 0.153 |
| Cc1nn(C)c(N(C)C)c1CNCCCN(C(C)C)S(C)(=O)=O | 8.55 |
| CCS(=O)(=O)NCCCNCc1c(C)nn(C)c1N(C)C | 21.5 |
| Cc1cc(C(=O)O)cc(S(=O)(=O)Nc2ccc3c(c2)OCCCO3)c1C | -5.74 |
| CC(C)CN(Cc1nc2c(cnn2C)c(=O)[nH]1)CC(C)C | -5.64 |
| CCC(C)N(CCOC)Cc1nc2c(cnn2C)c(=O)[nH]1 (stereo unspecified) | 17.1 |
| CN(CCC(F)(F)F)C(=O)c1nc(S(C)(=O)=O)n2ccccc12 | 25.3 |
| CCCC(C)N(C)C(=O)c1nc(S(C)(=O)=O)n2ccccc12 (stereo unspecified) | 0.813 |
| CC(C)CC(C)N(C)C(=O)c1nc(S(C)(=O)=O)n2ccccc12 (stereo unspecified) | 2.74 |
| CS(=O)(=O)c1cccc(C(=O)N2CCCC(n3cccn3)C2)c1 (stereo unspecified) | 2.98 |
| NS(=O)(=O)Cc1cccc(C(=O)N2CCCC(n3cccn3)C2)c1 (stereo unspecified) | 4.57 |
| CN(C)c1cc2c(nn1)CCN(C(=O)Cc1ccc3c(c1)CCC3)C2 | -1.75 |
| CCc1ccc(C(=O)O)cc1S(=O)(=O)Nc1ccc2c(c1)OCCO2 | 4.02 |
| NC(=O)c1cccc(OCC(=O)NS(=O)(=O)c2ccc3c(c2)CCC3)c1 | -0.191 |
| COCc1nc(C(=O)NS(=O)(=O)c2cc(C)ccc2C)cs1 | 3.09 |
| Cc1occc1C(=O)N1CCCN(Cc2nccn2C(C)C)CC1 | 20.3 |
| Cc1ccc(C(=O)N2CCN(Cc3cccs3)CC2)c(=O)[nH]1 | -3.21 |
| CCC(=O)NCC(=O)NCC1CCN(c2cc(Cl)ccc2C)C1 (stereo unspecified) | -1.96 |
| NC(=O)CN1CCN(C(=O)c2cc(Cl)cc3cccnc23)CC1 | 19.4 |
| Cc1nccc(C(=O)N2CCCN(Cc3nccn3C(C)C)CC2)n1 | -4.19 |

| Structure (SMILES) | cytotoxicity at 70.5 h [%] |
| --- | --- |
| CCOc1ccc(Cl)c(C(=O)NCCC(=O)Nc2ccncc2)n1 | 0.642 |
| Cc1ccc(Cl)cc1N1CCC(CNC(=O)Cn2cccn2)C1 (stereo unspecified) | 5.6 |
| Cc1cc(C(=O)N2CCCN(Cc3nccn3C(C)C)CC2)no1 | -5.9 |
| CC(C)c1nc(C2CCCN2CCS(=O)(=O)c2ccccc2)no1 (stereo unspecified) | 2.5 |
| CCc1nc(C2CCCN2Cc2ccn(C)c(=O)c2)no1 (stereo unspecified) | -2.34 |
| Cc1nc(C)n(C2CCCN(C(=O)c3cc(C4CC4)on3)C2)n1 (stereo unspecified) | 1.36 |
| Cc1nc(C2CCCN2Cc2ccn(C)c(=O)c2)no1 (stereo unspecified) | 0.568 |
| NC(=O)c1cc(C2CCCN(CCOc3cccc(F)c3)C2)n[nH]1 (stereo unspecified) | 13 |
| O=C1CCc2cc(NC(=O)C3CCCN3c3nccs3)ccc2N1 (stereo unspecified) | -1.9 |
| CCOc1ccc(Cl)c(C(=O)NC)n1 | 0.647 |
| O=C(NCCn1ccnc1)N1CCCC1c1ccc2c(c1)OCCO2 (stereo unspecified) | -4.48 |
| Cc1noc(C2CCN(C(=O)CCc3ccccn3)CC2)n1 | -4.44 |
| CC(C)n1ccnc1CN1CCCN(C(=O)c2cnn(C)c2)CC1 | -0.464 |
| CC(C)n1ccnc1CN1CCCN(C(=O)c2cnc[nH]2)CC1 | -1.35 |
| COc1ccc(C2CCCN2C(=O)NCCn2ccnc2)cc1OC (stereo unspecified) | 0.318 |
| O=C(NCCn1ccnc1)N1CCCC1c1cccs1 (stereo unspecified) | 2.2 |
| Cc1cc(C(=O)N2CCCC(n3cncn3)C2)no1 (stereo unspecified) | -0.711 |
| Cn1cnc2c1CCN(Cc1csc(-c3ccco3)n1)C2 | 15.3 |
| COc1cccc(-n2nnc(C(=O)N3CCC(C(N)=O)CC3)c2C)c1 | -8.91 |
| CC(C)CN1CC(C(=O)NCc2ccnc(-n3cccn3)c2)CC1=O (stereo unspecified) | 12.8 |
| COc1cccc(-n2nnc(C(=O)N3CCCCCC3)c2C)c1 | -12.9 |
| CCC1c2ccsc2CCN1C(=O)NCc1cccnc1N(C)C (stereo unspecified) | 13 |
| CC(Nc1cccc(CN2CCOC2=O)c1)C(=O)Nc1ccccc1 (stereo unspecified) | -22.1 |

| Structure (SMILES) | cytotoxicity at 70.5 h [%] |
| --- | --- |
| Cc1cccc(NC(=O)C(C)Nc2cccc(CN3CCOC3=O)c2)c1 (stereo unspecified) | -7.24 |
| Cn1ccc(CN2CCC(CC(=O)NC3CCCC3)CC2)cc1=O | 15 |
| Cn1cc(NC(=O)N2CCC(Cc3ccccc3)CC2)ccc1=O | -2.61 |
| CN(C)c1ccc(C(=O)N2CCCN(Cc3cnn(C)c3)CC2)nn1 | -8.42 |
| c1cc(COc2ccc(CNC3CCc4ncnn4C3)cc2)ccn1 (stereo unspecified) | -2.99 |
| Cc1cc(C)n(C2CCCN(C(=O)Cc3cn4ccsc4n3)C2)n1 (stereo unspecified) | -13.1 |
| Cc1cnn(CC2CCCN2C(=O)c2ccc(-n3cccn3)nc2)c1 (stereo unspecified) | -1.39 |
| Cc1cnn(CC2CCCCN2C(=O)c2ccc(NC3CC3)nc2)c1 (stereo unspecified) | -4.98 |
| c1cnnc(N2CCCC2CNCc2nc(-c3ccco3)no2)c1 (stereo unspecified) | -14.5 |
| CCN(CC)c1ccc(C(=O)N2CCCC(n3cncn3)C2)cn1 (stereo unspecified) | -4.12 |
| CC(C)(C)c1nc(CC(=O)N2CCCC(n3cncn3)C2)cs1 (stereo unspecified) | -1.77 |
| CNC(=O)c1ccc(C(=O)N2CCCCC2Cn2cc(C)cn2)cn1 (stereo unspecified) | -5.34 |
| Cc1cnn(CC2CCCN2C(=O)c2ccc(OCC3CC3)nc2)c1 (stereo unspecified) | -6.47 |
| c1ccc(COc2ccccc2CNC2CCc3ncnn3C2)cc1 (stereo unspecified) | -6.49 |
| c1csc(CN2CC(c3nc(-c4cnccn4)no3)C2)c1 | -4.66 |
| c1cnc(-c2noc(C3CN(Cc4ccsc4)C3)n2)cn1 | -8.37 |
| CCOC(=O)CN1CC(c2nc(-c3ccsc3)no2)C1 | 0.957 |
| O=C(CN1CC(c2nc(-c3ccco3)no2)C1)NCCc1ccccc1 | -11.2 |
| Clc1ccc(COCC2CCN(Cc3ccccn3)CC2)cc1 | -0.416 |
